The test system of the test is CPA-CLP sepsis mouse model. The test can be described thus: Combination effects of LPC and antibiotics (colistin, tobramycin, fusidin) in CPA-CLP sepsis mouse model (SEP013); single i.v. 6 hrs after CLP. The format is in vivo, ICR mice. The note with it: mpk: LPC 5, DW286aa 5, Colistin 5, Tobra 4, Fusidin 80, LPC + Colistin 5 + 5, LPC + Tobra 5 + 4, LPC + Fusidin 5 + 80. An excerpt:
CPA is well known as an immunosuppressive agent. […] Then, the abdomen was closed following the general procedure.
Then, body weight and mortality changes were observed.

As to colistin, the Mortalities (1st CPA treat) was determined as 0; the Mortalities (2nd CPA treat) came out at 0; the Mortalities (At CLP (day 0)) came out at 0; the Mortalities (Day 1) worked out at 1; the Mortalities (Day 2) is reported as 5; the Mortalities (Day 3) came to 2. For the same substance, the Mortalities (Total) is listed as 9. The Survivalities (1st CPA treat) is on record as 100%; the Survivalities (2nd CPA treat) was found to be 100%; the Survivalities (At CLP (day 0)) is reported as 100%; the Survivalities (Day 1) came to 90%; the Survivalities (Day 2) came out at 40%; the Survivalities (Day 3) came out at 20%. Also, the Survivalities (Total) was found to be 20%.

These data come from patent publication US9446061B2, “Composition containing antibiotics and lysophosphatidylcholine for boosting immunity or treatment of bacterial infections” (priority 2011, dated 2016).
